Test results reported in ChEMBL document CHEMBL1201862, “PubChem BioAssay data set” (2004).
Calls of active or inactive are those of the source.

Key:
[1] = biological target: Sphingosine 1-phosphate receptor 1 (Homo sapiens, UniProt P21453); test: Fluorescence-based counterscreen assay for S1P4 agonists: Cell-based dose response high throughput screening assay to identify agonists of the Sphingosine 1-Phosphate Receptor 1 (S1P1). [Related pubchem assays (depositor defined):AID1509, AID1523, AID1801, AID463107, AID463118, AID463119, AID463122, AID463123, AID463129, AID463225, AID504400, AID504460]; assay type: functional
Sequence of Sphingosine 1-phosphate receptor 1 (P21453 whole entry): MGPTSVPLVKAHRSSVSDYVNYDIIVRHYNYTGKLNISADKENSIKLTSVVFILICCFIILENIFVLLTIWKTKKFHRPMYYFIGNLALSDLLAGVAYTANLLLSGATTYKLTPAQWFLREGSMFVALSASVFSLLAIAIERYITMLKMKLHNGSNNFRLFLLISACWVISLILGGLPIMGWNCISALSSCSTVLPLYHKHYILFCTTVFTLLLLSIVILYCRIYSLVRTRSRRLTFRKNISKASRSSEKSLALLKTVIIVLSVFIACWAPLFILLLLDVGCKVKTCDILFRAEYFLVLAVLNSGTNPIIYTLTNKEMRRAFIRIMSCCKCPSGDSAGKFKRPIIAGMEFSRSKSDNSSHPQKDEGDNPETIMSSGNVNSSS

[2] = biological target: T1, Heat shock factor protein 1 (Mus musculus, UniProt P38532); test: decrease of HSF1-responsive luciferase luminescence – cell-based, NIH3T3, dose retest, confirmation (AID 2382); assay type: functional;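 also: NIH3T3 fibroblasts with HSF1-driven luciferase reporter stressed by proteasome inhibitor MG132; luminescence from HSF1-driven luciferase expression after 8 hours of MG132 stress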
T1 sequence (P38532 whole entry): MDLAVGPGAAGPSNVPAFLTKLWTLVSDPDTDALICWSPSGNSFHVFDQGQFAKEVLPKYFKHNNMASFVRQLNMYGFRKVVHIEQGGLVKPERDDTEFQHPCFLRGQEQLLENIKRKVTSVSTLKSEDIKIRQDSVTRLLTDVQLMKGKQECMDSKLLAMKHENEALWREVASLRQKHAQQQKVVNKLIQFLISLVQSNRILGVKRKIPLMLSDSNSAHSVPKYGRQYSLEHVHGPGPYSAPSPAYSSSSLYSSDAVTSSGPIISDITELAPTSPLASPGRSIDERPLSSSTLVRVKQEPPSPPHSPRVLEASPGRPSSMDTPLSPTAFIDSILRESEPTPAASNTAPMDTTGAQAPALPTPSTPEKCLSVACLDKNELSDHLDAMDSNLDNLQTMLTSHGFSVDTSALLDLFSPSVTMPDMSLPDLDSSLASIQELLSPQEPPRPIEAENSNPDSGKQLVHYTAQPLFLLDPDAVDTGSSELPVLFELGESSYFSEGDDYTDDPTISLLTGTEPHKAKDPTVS

[3] = biological target: T2, Sphingosine 1-phosphate receptor 4 (Homo sapiens, UniProt O95977); test: Fluorescence dose response cell-based high throughput screening assay for agonists of the Sphingosine 1-Phosphate Receptor 4 (S1P4). [Related pubchem assays: 1509 (Primary screen.), 1523 (Confirmation screen in triplicates.)]; assay type: functional
T2 sequence (O95977 whole entry): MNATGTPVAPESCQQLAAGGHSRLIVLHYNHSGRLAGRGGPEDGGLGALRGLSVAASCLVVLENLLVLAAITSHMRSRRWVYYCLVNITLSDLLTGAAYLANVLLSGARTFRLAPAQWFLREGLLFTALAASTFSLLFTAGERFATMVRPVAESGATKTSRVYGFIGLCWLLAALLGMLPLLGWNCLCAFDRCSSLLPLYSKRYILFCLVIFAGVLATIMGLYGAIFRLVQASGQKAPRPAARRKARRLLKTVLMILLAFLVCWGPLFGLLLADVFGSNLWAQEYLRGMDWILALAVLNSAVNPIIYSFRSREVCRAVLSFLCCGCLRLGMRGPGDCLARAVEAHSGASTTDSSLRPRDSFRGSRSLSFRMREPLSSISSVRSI

[4] = system: HeLa; test: viability loss in HeLa cells – cell-based, 24 h, cherry-picked samples, cytotoxicity control, dose response (AID 504726); assay type: functional; settings: Homo sapiens;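 also: potency for cytotoxicity as loss of luminescence signal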
[5] = biological target: UDP-galactopyranose mutase (Mycobacterium tuberculosis, UniProt P9WIQ1); test: Inhibitors of Mycobacterium tuberculosis UDP-galactopyranose mutase (UGM) enzyme Measured in Biochemical System Using Plate Reader - 2105-02_Inhibitor_Dose_CherryPick_Activity. [Related pubchem assays (depositor defined):AID504439]
Sequence of UDP-galactopyranose mutase (P9WIQ1 whole entry): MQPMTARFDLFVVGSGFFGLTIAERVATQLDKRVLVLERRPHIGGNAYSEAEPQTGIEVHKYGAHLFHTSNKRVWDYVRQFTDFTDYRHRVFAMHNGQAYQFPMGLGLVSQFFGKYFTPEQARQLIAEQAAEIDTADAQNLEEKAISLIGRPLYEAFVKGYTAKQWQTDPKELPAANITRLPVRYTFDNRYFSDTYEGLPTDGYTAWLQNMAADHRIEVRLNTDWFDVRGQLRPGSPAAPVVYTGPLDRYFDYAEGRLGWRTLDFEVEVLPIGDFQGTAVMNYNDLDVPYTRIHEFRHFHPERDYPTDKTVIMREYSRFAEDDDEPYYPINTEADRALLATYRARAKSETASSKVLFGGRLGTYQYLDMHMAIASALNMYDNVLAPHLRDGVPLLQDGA

[6] = biological target: T3, Insulin-degrading enzyme (Homo sapiens, UniProt P14735); test: recombinant IDE activation, cell-free – biochemical, fluorescence polarization, counter-screen for IDE activator project, dose response (AID 588681)
T3 sequence (P14735 whole entry): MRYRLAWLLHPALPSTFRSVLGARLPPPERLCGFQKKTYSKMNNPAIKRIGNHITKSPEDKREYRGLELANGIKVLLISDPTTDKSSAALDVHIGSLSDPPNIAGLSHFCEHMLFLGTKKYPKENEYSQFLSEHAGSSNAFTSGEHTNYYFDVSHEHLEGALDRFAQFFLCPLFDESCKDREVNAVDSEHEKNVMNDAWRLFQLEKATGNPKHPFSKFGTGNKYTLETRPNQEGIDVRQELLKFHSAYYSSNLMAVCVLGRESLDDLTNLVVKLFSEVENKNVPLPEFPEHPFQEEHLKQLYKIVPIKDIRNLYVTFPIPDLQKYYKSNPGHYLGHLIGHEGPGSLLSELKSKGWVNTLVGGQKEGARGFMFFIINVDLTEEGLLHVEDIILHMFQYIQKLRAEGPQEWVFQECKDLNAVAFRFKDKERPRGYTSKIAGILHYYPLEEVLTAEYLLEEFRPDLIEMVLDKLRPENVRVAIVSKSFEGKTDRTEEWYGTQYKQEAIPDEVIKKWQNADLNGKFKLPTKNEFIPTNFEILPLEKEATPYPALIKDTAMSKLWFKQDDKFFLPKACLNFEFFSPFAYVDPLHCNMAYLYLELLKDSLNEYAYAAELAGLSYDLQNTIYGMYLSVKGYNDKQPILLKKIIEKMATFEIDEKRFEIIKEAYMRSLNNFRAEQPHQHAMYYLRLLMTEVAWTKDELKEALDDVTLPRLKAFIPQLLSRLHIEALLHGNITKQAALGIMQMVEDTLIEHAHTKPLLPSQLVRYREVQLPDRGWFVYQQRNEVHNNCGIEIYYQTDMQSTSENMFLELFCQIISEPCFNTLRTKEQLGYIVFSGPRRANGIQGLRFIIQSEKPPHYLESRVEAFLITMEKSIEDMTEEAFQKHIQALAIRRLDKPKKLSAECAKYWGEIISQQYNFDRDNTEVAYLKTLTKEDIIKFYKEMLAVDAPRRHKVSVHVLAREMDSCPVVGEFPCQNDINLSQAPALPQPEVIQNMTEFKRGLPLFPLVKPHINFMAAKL

[7] = biological target: T3, Insulin-degrading enzyme; test: cellular IDE activation of Abeta substrate cleavage – fluorescence polarization, HEK cells, dose response (AID 588439); assay type: functional, cell-based
[8] = system: HEK293; test: membrane integrity loss in HEK cells – cell-based, fluorescence, cytotoxicity control for IDE activator project, dose response (AID 588440); assay type: functional; settings: Homo sapiens;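 also: cytotoxicity by LDH release measuring loss of membrane integrity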
[9] = system: HEK293; test: optical interference in Abeta FP readout, dose response, artefact control for IDE activator project, biochemical, fluorescence polarization (AID 588442); assay type: functional, cell-based; settings: Homo sapiens
[10] = biological target: Lysine-specific demethylase 4C (Homo sapiens, UniProt Q9H3R0); test: inhibition of JMJD2C H3K9me3 demethylation – biochemical, DELFIA europium, cherry-picked samples, dose response (AID 488835); assay type: functional
[11] = biological target: T4, Polyadenylate-binding protein 1 (Homo sapiens, UniProt P11940); test: MLLE binding blockers, Cy5 peptide tracer – biochemical, fluorescence polarization, Cy5-PAM2 peptide, secondary, miRNA deadenylation inhibitor project, dose response (AID 602260); assay type: functional; settings: read-out: IC50_Mean
T4 sequence (P11940 whole entry, the tested form may be a part): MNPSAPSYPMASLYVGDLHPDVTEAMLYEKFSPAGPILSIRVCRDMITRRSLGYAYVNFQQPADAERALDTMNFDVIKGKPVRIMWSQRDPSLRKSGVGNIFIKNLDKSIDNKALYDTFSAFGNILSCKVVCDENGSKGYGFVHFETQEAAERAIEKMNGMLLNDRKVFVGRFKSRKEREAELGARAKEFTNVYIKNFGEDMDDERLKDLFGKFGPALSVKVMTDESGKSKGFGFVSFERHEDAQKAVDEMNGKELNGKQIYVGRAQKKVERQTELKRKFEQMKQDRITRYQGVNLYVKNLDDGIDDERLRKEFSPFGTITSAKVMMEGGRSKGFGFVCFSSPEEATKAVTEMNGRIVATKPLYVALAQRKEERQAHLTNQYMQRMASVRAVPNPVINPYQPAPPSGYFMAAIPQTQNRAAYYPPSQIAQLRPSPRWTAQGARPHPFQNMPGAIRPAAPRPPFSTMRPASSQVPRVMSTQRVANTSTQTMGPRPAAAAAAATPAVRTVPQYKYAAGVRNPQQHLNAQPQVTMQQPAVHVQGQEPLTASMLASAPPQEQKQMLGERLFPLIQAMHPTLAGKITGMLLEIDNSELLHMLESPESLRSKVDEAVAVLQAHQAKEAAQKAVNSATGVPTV

[12] = biological target: T4, Polyadenylate-binding protein 1; test: MLLE domain peptide-binding blockers, IC50 – biochemical, fluorescence polarization, FITC-PAM2 peptide, dose response (AID 602259); assay type: functional; settings: read-out: IC50_Mean
[13] = biological target: Cytochrome P450 2C19 (Homo sapiens, UniProt P33261); test: Cytochrome panel assay with activity outcomes. Panel member name: p450-cyp2c19 Compounds with AC50 equal or less than 10 uM are considered active; assay type: functional
Sequence of Cytochrome P450 2C19 (P33261 whole entry): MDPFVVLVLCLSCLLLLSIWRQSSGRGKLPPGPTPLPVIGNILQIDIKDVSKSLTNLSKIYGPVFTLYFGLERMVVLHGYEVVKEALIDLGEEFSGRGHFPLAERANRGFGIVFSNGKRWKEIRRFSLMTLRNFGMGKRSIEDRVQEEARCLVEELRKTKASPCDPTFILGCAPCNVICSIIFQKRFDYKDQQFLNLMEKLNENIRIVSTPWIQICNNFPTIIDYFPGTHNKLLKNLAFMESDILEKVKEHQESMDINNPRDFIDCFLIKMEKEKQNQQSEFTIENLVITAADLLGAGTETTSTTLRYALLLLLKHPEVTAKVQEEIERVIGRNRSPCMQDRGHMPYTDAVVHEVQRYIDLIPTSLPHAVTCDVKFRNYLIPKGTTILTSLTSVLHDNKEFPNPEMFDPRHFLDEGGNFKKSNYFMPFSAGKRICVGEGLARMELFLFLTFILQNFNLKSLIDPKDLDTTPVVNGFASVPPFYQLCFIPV

[14] = biological target: T5, Cytochrome P450 1A2 (Homo sapiens, UniProt P05177);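 also: PubChem cytochrome P450 panel assay, CYP1A2 panel member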
T5 sequence (P05177 whole entry): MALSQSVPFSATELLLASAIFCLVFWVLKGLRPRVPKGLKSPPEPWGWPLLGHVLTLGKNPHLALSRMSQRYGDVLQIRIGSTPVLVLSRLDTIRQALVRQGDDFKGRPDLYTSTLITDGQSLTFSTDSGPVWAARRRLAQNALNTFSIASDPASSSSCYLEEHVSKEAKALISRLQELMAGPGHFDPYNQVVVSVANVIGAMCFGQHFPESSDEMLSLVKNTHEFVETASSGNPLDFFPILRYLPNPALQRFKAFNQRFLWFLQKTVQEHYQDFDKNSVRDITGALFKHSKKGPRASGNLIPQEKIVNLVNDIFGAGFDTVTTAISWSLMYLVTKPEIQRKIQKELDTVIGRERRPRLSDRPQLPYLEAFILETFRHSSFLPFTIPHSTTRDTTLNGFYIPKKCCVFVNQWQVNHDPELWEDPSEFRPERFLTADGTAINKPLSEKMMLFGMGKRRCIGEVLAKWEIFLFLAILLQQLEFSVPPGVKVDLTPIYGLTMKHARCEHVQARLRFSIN

[15] = biological target: Cytochrome P450 2D6 (Homo sapiens, UniProt P10635);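 also: CYP2D6 member of a cytochrome P450 panel assay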
Sequence of Cytochrome P450 2D6 (P10635 whole entry): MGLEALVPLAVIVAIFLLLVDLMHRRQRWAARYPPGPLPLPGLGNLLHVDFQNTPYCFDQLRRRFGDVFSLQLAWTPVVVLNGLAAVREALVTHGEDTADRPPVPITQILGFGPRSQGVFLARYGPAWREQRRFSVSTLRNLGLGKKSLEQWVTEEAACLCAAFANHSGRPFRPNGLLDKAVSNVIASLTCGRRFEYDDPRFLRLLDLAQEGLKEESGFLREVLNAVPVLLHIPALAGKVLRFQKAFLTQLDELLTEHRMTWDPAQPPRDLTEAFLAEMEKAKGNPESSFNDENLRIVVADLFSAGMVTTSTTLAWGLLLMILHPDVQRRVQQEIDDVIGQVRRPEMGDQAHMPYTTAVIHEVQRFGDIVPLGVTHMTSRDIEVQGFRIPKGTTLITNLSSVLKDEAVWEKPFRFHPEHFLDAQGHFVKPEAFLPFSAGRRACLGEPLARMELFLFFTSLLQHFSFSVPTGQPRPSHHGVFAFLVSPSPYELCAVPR

[16] = biological target: Cytochrome P450 2C9 (Homo sapiens, UniProt P11712)
Sequence of Cytochrome P450 2C9 (P11712 whole entry): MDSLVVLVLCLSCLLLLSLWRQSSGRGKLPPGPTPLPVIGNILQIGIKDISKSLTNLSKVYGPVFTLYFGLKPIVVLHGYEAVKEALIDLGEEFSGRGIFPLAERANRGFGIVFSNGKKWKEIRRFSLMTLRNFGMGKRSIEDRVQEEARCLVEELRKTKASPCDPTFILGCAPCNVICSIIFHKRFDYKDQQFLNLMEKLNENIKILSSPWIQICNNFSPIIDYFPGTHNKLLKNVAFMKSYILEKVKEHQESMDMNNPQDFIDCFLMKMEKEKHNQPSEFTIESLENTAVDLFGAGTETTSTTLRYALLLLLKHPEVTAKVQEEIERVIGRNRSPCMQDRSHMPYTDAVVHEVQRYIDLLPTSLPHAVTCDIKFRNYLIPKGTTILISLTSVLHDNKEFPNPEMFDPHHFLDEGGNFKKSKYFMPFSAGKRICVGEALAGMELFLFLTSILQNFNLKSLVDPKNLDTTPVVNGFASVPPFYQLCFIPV

[17] = system: A-375; test: MITF: Counter assay: A375 proliferation Measured in Cell-Based System Using Plate Reader - 2084-03_Inhibitor_Dose_DryPowder_Activity. [Related pubchem assays (depositor defined):AID488944]; assay type: functional; settings: Homo sapiens
[18] = system: A-375; test: proliferation inhibition in MITF-low A375 cells – cell-based, cherry-pick samples, set 2, counter-screen for MITF modulator project, dose response (AID 540335); assay type: functional; settings: Homo sapiens
[19] = biological target: Tumor necrosis factor (Homo sapiens, UniProt P01375); test: analog potency on TNFa NF-kB signaling – cell-based, revised, SAR follow-up (AID 2337); assay type: functional
[20] = biological target: Nucleotide-binding oligomerization domain-containing protein 1 (Homo sapiens, UniProt Q9Y239); test: blockers of NOD1 pathway activity – revised, SAR follow-up (AID 2333); assay type: functional
Sequence of Nucleotide-binding oligomerization domain-containing protein 1 (Q9Y239 whole entry, the tested form may be a part): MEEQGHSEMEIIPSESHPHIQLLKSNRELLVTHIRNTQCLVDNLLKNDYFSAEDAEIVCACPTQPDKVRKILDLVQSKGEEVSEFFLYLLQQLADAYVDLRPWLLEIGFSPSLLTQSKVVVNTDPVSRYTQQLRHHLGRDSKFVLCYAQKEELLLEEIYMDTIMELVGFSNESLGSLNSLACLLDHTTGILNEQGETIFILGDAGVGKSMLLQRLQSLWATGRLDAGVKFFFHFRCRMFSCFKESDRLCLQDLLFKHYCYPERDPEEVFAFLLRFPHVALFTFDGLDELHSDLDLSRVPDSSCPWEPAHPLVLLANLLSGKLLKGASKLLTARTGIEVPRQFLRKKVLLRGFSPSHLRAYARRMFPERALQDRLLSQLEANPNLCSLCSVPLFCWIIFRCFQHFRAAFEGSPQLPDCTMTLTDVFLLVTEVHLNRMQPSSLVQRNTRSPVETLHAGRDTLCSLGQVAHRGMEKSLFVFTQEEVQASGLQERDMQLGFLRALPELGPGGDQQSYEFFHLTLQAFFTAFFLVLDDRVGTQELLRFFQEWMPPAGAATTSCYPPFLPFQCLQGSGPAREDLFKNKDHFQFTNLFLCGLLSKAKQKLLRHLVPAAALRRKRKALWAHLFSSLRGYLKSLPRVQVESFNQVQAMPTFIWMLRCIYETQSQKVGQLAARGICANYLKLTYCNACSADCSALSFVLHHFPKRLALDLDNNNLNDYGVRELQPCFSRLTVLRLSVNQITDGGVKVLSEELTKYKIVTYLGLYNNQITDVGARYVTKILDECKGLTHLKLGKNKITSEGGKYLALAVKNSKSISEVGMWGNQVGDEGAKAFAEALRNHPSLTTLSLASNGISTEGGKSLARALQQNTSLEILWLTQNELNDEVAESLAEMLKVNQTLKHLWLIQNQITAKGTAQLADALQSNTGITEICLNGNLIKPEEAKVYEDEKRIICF

[21] = biological target: Nucleotide-binding oligomerization domain-containing protein 2 (Homo sapiens, UniProt Q9HC29); test: PubChem AID 2334; assay type: functional
Sequence of Nucleotide-binding oligomerization domain-containing protein 2 (Q9HC29 whole entry, the tested form may be a part): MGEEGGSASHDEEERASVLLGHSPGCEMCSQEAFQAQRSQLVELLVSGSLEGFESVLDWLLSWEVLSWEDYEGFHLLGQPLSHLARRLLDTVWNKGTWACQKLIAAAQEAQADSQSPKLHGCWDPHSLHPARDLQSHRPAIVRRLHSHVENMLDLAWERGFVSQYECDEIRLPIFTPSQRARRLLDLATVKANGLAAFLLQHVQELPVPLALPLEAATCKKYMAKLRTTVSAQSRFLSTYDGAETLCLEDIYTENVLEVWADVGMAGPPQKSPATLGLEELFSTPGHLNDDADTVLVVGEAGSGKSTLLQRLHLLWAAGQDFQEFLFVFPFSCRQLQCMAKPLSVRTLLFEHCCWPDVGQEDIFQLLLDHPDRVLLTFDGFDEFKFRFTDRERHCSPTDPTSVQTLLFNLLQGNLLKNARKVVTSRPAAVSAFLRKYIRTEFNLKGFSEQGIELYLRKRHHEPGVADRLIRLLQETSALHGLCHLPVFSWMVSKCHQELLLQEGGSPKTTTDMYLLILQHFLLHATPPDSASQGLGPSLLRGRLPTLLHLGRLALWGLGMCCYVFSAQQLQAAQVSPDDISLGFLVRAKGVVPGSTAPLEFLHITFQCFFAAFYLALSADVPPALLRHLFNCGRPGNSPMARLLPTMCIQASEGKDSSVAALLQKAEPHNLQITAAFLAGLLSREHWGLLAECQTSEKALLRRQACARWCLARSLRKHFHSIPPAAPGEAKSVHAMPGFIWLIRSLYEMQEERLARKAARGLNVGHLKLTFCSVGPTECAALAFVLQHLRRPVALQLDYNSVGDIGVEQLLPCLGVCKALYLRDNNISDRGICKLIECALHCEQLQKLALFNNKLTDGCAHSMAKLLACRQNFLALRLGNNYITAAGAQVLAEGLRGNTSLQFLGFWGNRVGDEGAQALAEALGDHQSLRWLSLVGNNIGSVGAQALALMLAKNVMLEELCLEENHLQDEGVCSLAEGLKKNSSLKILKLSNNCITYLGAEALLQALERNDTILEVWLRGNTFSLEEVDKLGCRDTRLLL

[22] = system: HEK293; test: cells; settings: Homo sapiens

C/N=C1/S/C(=C\c2cc(C)n(-c3ccccc3F)c2C)C(=O)N1C
EC50 [1]: 1.18 µM (active)
EC50 [2]: < 0.16 µM (active)
EC50 [3]: 0.844 µM (active)

COc1ccc(N=Nc2nc3ccc(Br)cc3n2C)cc1
AC50 [4]: 98.3 µM (active)
AC50 [5]: 145 µM (active)
EC50 [6]: > 54.7 µM (inactive)
EC50 [7]: > 54.7 µM (inactive)
IC50 [8]: > 89.2 µM (inactive)
EC50 [9]: > 54.7 µM (inactive)

O=C(CSc1nc(O)c(Cc2ccccc2)c(=O)[nH]1)c1ccccc1
AC50 [10]: 16.9 µM (active)
IC50 [11]: > 66 µM (inactive)
IC50 [12]: 52.5 µM (inactive)

CCCSc1ccc2nc(NC(=O)OC)[nH]c2c1 [ALBENDAZOLE]
AC50 [13]: inactive
AC50 [14]: 0.398 µM (active)
AC50 [15]: inactive
AC50 [16]: inactive

CCS(=O)(=O)N1CCCC(C(=O)NCCCOC(C)C)C1 (stereo not given)
AC50 [15]: inconclusive

O=C(Nc1cc2c(cc1Cl)OCCO2)c1ccco1
AC50 [17]: > 11 µM (active)
AC50 [18]: > 11 µM (active)

CNC(=O)c1[nH]cnc1C(=O)N[C@@H](Cc1ccccc1)C(=O)OCc1ccccc1
EC50 [1]: 3.13 µM (active)
EC50 [3]: > 16.6 µM (not active)

O=C(Nc1ccc(CN2CCc3ccccc3C2)cc1)c1ccc(Cl)cc1
IC50 [19]: > 20 µM (inactive)
IC50 [20]: > 20 µM (inactive)
IC50 [21]: > 20 µM (inactive)
IC50 [22]: > 20 µM (inactive)
